From US20230295152A1 (SENDA BIOSCIENCES, INC., priority 2019, published 2023) come the findings set out here.

A short description of data set [1]: Solubility Determination Assay in PBS pH 1.6 and pH 7.4. As to conditions: PBS buffer, aqueous buffer, kinetic from dmso stock. In kind it is physicochemical. The procedure:
The stock solutions of test compounds and control compound progesterone were prepared in DMSO at the concentrations of 10 mM. 15 μL of stock solution (10 mM) of each sample was placed in order into their proper 96-well rack. 485 μL of PBS pH 1.6 and pH 7.4 were added into each vial of the cap-less Solubility Sample plate. The assay was performed in singlet. One stir stick was added to each vial and then the vial was sealed using a molded PTFE/Silicone plug. […] After completion of the 2 hours, plugs were removed and the stir sticks were removed using a big magnet. The samples from the Solubility Sample plate were transferred into the filter plate. Using the Vacuum Manifold, all the samples were filtered. An aliquot of 5 μL was taken from the filtrate followed by addition of 495 μL of a mixture of H2O and acetonitrile containing internal standard (1:1). A certain proportion of ultrapure water was used to dilute the diluent according to the peak shape. The dilution factor was changed according to the solubility values and the LC-MS signal response.
From the 10 mM DMSO STD plate, 6 μL was transferred into the remaining empty plate, and then 194 μL of DMSO were added to that plate to have a STD concentration of 300 μM. From the 300 μM DMSO STD plate, 5 μL were transferred into the remaining empty plate, and then 495 μL of a mixture of H2O and acetonitrile containing internal standard (1:1) were added to that plate to have a final STD concentration of 3 μM. A certain proportion of ultrapure water was used to dilute the diluent according to the peak shape. The concentrations of the standard samples were changed according to the LC-MS signal response.
The plate was placed into the well plate autosampler. The samples were evaluated by LC-MS/MS analysis.
All calculations were carried out using Microsoft Excel.
The filtrate was analyzed and quantified against a standard of known concentration using LC coupled with mass spectral peak identification and quantitation. Solubility values of the test compound and control compound were calculated as follows: […]
Any value of the compounds that was not within the specified limits was rejected and the experiment was repeated.
“+++” indicates a solubility value equal to or greater than 1 μM, “++” indicates a solubility value between 0.1 and 1 μM, and “+” indicates a solubility value less than 0.1 μM.

A further data set has as its target T1, AHR (Homo sapiens, UniProt P35869).
T1 construct: other cell line with a DRE-luciferase reporter stably transfected; endogenous in cells; host or cells: HepG2 AhR-Lucia reporter cells
T1 sequence (P35869 11-848): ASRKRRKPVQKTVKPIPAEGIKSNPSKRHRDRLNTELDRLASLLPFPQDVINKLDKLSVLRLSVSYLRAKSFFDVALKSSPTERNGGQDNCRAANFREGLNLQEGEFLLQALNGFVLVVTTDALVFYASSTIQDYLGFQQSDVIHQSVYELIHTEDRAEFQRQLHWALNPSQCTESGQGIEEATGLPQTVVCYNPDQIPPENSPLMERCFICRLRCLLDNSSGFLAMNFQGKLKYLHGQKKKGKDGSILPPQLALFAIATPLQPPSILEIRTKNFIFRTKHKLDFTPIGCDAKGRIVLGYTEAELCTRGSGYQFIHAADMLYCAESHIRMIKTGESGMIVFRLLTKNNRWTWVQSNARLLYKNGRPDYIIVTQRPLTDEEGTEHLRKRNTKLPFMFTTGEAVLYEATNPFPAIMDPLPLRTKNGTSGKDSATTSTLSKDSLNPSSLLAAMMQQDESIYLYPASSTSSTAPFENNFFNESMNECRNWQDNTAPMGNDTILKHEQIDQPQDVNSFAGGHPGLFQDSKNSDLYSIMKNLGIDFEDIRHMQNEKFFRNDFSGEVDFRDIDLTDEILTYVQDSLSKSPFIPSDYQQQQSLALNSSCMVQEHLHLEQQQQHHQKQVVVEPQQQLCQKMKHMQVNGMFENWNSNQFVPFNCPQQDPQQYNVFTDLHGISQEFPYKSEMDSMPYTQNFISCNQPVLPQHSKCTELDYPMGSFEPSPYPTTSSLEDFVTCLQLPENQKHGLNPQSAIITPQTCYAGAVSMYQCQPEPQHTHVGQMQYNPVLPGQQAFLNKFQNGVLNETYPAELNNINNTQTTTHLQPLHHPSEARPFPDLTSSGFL
Put plainly: DRE-Luciferase Reporter Assay, HepG2 AhR-Lucia reporter cells. Format: cell-based. As to conditions: with AHR activating ligand at EC50, read-out: HepG2-Luc IC50. Summed up: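 Antagonism read as inhibition of agonist-driven secreted luciferase in stably DRE-reporter-transfected cells such as HepG2 AhR-Lucia. Agonist ligand at EC50 concentration added 1 hr post-plating alongside antagonist (log series, top 100 uM); supernatant read at 24 or 48 h, IC50 derived against agonist-only maximum.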
(In general: In a reporter assay the amount or activity of a reporter protein is the signal.)

[2] abbreviates: PBS pH 1.6, 25° C., read-out: Aq. Solubility at pH = 1.6.
Setting [3] is: PBS pH 7.4, 25° C., read-out: Aq. Solubility at pH = 7.4.

Like-named read-outs stand apart in the source and are kept apart here.

Usually solubility stands for the concentration that dissolves in the medium under given conditions. Usually IC50 stands for the concentration that inhibits the measured activity by half.

As to `C[C@@H](CO)n1cnc2c(-c3cccnc3)nc(-c3ccc(Cl)cc3)cc2c1=O` [Compound 24], the solubility at 2 h in data set [1] (setting [2]) and in data set [1] (setting [3]) was no less than 1 µM in each case. Further, at AHR, the IC50 is less than 100 nM.
For the compound `Cc1ccc(-c2cc3c(=O)n([C@H](CO)C(C)C)cnc3c(-c3cc(F)cc(F)c3)n2)cc1` [Compound 37], the results for the solubility at 2 h in data set [1] (setting [2]) and in data set [1] (setting [3]) were no less than 1 µM and less than 0.1 µM, respectively. In addition, the IC50 on AHR was less than 100 nM.
The like results for `CC(C)(O)Cn1cnc2c(-c3cccc(F)c3)nc(-c3ccc(Cl)cc3)cc2c1=O` [Compound 38] were, in that order, less than 0.1 µM, less than 0.1 µM and less than 100 nM.
The like results for `O=c1c2cc(-c3ccc(C(F)(F)F)nc3)nc(-c3cccnc3)c2ncn1[C@@H]1COC[C@@H]1O` [Compound 129, 3-((3R,4R)-4-hydroxytetrahydrofuran-3-yl)-8-(pyridin-3-yl)-6-(6-(trifluoromethyl)pyridin-3-yl)pyrido[3,4-d]pyrimidin-4(3H)-one] were, in that order, no less than 1 µM, no less than 1 µM and less than 100 nM.
Take `O=c1c2cc(-c3ccc(C(F)(F)F)cn3)nc(-c3cccnc3)c2ncn1[C@@H]1COC[C@@H]1O` [Compound 148, 3-((3R,4R)-4-hydroxytetrahydrofuran-3-yl)-8-(pyridin-3-yl)-6-(5-(trifluoromethyl)pyridin-2-yl)pyrido[3,4-d]pyrimidin-4(3H)-one]: the solubility at 2 h in data set [1] (setting [2]) and in data set [1] (setting [3]) was no less than 1 µM throughout. For the same compound, the IC50 at AHR is less than 100 nM.
On to `C[C@@H](CO)n1cnc2c(-c3cn[nH]c3)nc(-c3ccc(C(F)(F)F)cn3)cc2c1=O` [Compound 191, (S)-3-(1-hydroxypropan-2-yl)-8-(1H-pyrazol-4-yl)-6-(5-(trifluoromethyl)pyridin-2-yl)pyrido[3,4-d]pyrimidin-4(3H)-one], for which the IC50 at AHR was less than 100 nM.
Still for that read-out and setting: under `COCCc1cc2c(=O)n([C@@H](C)CO)cnc2c(-c2cccnc2)n1` [Compound 192, (S)-3-(1-hydroxypropan-2-yl)-6-(2-methoxyethyl)-8-(pyridin-3-yl)pyrido[3,4-d]pyrimidin-4(3H)-one] stands greater than 500 nM.
